Legend:
[1] = tested on: muscle RING Finger-1 (Murf-1); experiment: Murf-1 gene expression in muscle tissue of db/db mice; format: in vivo, db/db diabetic mouse model; settings: db/db mice muscle tissue RNA, 2.5 mg/kg intraperitoneally, 8 weeks
Experimental: (§1) It was confirmed whether the antidiabetic peptide relieves diabetes mellitus induced by leptin receptor defects. As an animal model, 5-week-old C57BLKS/J-db/db male mice were provided by Central Lab. Animal Inc., fed a normal diet, and used after an adaptation period of one week. The breeding environment was maintained at 18 to 24° C. and a humidity of 50 to 60%, and the animals were given free access to normal feed and water during both the adaptation period and the experimental period. Mice that completed the adaptation period were divided into a control (intraperitoneal injection) and a peptide administration group. PBS and antidiabetic peptides (Nos. 7 and 8; 2.5 mg/kg) were intraperitoneally administered to the control and peptide administration groups, respectively, for a total of 8 weeks.
(§2) Various tissue examinations were performed on a db/db diabetic mouse model to confirm the efficacy of relieving diabetic complications. First, in order to confirm muscle loss-related effects, RNA was isolated from muscle tissue and the expression levels of muscle loss-related genes were confirmed. […]

S6 (mTOR marker) = experiment: S6 phosphorylation in L6 skeletal muscle cells (western blotting); format: cell-based; settings: 100 nM, 1 hour; for phosphorylation of S6 (mTOR marker): FIG. 8
Experimental: (§3) L6 skeletal muscle cells were cultured in a 6-well plate and then starved with 0.5% FBS. Thereafter, the cells were treated with an antidiabetic peptide at a concentration of 100 nM for 1 hour, proteins were collected, and then western blotting was performed.

[2] = tested on: peroxisome proliferator-activated receptor α (PPARα); experiment: PPARα gene expression in muscle tissue of db/db mice; format: in vivo, db/db diabetic mouse model; settings: db/db mice muscle tissue RNA, 2.5 mg/kg intraperitoneally, 8 weeks
Experimental: as §1, §2

obese mouse model = experiment: Glucose tolerance in high-fat-diet obese mouse model; format: in vivo, C57BL/6N male mice; settings: obese mice, 2.5 mg/kg
Experimental: 5-week-old C57BL/6N male mice were obtained from Orient Bio, fed a normal diet, and used after an adaptation period of one week. The breeding environment was maintained at 18 to 24° C. and a humidity of 50 to 60%, and the animals were given free access to feed and water during both the adaptation period and the experimental period. After the one-week adaptation period, the mice were induced to become obese through a high-fat diet to induce impaired glucose tolerance.
The mice in which obesity was induced were divided into a control and an experimental group. All mice were fasted for 12 hours, and PBS and a peptide (No. 1, 7, or 8; 2.5 mg/kg) were administered to the control and the experimental group, respectively. One hour later, a 20% glucose solution was intraperitoneally injected, and blood collected at each time period was analyzed using a blood glucose analyzer.

[3] = tested on: CCAAT enhancer binding protein α (C/EBPα); experiment: C/EBPα gene expression in muscle tissue of db/db mice; format: in vivo, db/db diabetic mouse model; settings: db/db mice muscle tissue RNA, 2.5 mg/kg intraperitoneally, 8 weeks
Experimental: as §1, §2

[4] = tested on: adipocyte protein 2 (AP2); experiment: AP2 gene expression in muscle tissue of db/db mice; format: in vivo, db/db diabetic mouse model; settings: db/db mice muscle tissue RNA, 2.5 mg/kg intraperitoneally, 8 weeks
Experimental: as §1, §2

FoxO1 = FoxO1 phosphorylation and expression in L6 skeletal muscle cells (western blotting); format: cell-based; settings: 100 nM, 1 hour
Experimental: as §3

[5] = tested on: glucose transporter type 4 (GLUT4); experiment: GLUT4 translocation to the cell membrane in C2C12 skeletal muscle cells; format: cell-based; settings: 100 nM, 1 hour, FIG. 3: Nos. 1 to 8 and insulin
Experimental: Similarly, in order to further verify the function of promoting glucose metabolism by antidiabetic peptide treatment, the degree of expression of a glucose transporter type 4 (GLUT4) glucose receptor, which plays an important role in glucose uptake, in the cell membrane was measured. It is known that GLUT4 moves from the cytoplasm to the cell membrane to promote sugar metabolism, and thus the expression level thereof increases. To confirm this, C2C12 skeletal muscle cells were starved with 0.5% FBS and then treated with the peptide and insulin, which is a positive control, at a concentration of 100 nM for 1 hour. Cells were fixed with 4% paraformaldehyde, incubated with a GLUT4-specific antibody at 37° C. for 30 minutes, reacted with an o-phenylenediamine (OPD) solution, and absorbance was measured and compared with that of the control.

Substance: AGSIREAGGAFGKREQAEEERYFR (listed as Homo sapiens) [No. 7]
- Murf-1 gene expression change [1]: −90.1%
- phosphorylation of S6 (mTOR marker) (S6 (mTOR marker)): increased
- PPARα gene expression change [2]: +94.1%
- change in blood sugar over time (GLUAUC) reduced compared to the control (obese mouse model; after baseline correction): 31.1%
- C/EBPα gene expression change [3]: −18.6%
- AP2 gene expression change [4]: −52.5%

Substance: AQSREQLAALKK (listed as Homo sapiens) [No. 5]
- phosphorylation of S6 protein, increase (S6 (mTOR marker)): 494%

Substance: EQAEEER (listed as Homo sapiens) [No. 2]
- phosphorylation of S6 protein, increase (S6 (mTOR marker)): 365%

Substance: EQAEEERYFR (listed as Homo sapiens) [No. 4]
- phosphorylation of S6 protein, increase (S6 (mTOR marker)): 224%

Substance: REAGGAFGKR (listed as Homo sapiens) [No. 3]
- phosphorylation of S6 (mTOR marker) (S6 (mTOR marker)): increased

Substance: VDRGAGSIREAGGAFGKREQAEEERYFR (listed as Homo sapiens) [No. 8]
- Murf-1 gene expression change [1]: −36.0%
- phosphorylation of S6 protein, increase (S6 (mTOR marker)): 414%
- PPARα gene expression change [2]: +12.9%
- blood sugar metabolism after glucose injection, baseline corrected, compared to the control (obese mouse model; fasted 12 hours, 20% glucose intraperitoneally one hour later, FIG. 4 left): significantly improving
- C/EBPα gene expression change [3]: −45.5%
- AP2 gene expression change [4]: −54.7%

Substance: YFR (listed as Homo sapiens) [No. 1]
- expression level of total FoxO1 (FoxO1): decreased
- phosphorylation of FoxO1 (FoxO1; FIG. 9: Nos. 1 to 8): increased
- phosphorylation of S6 protein, increase (S6 (mTOR marker)): 188%

Substance: YFRAQSREQLAALKKHH (listed as Homo sapiens) [No. 6]
- phosphorylation of S6 (mTOR marker) (S6 (mTOR marker)): increased

Substance: insulin
- GLUT4 translocation compared to the control [5]: significant GLUT4 translocation

Reference: US20240335499A1, “PEPTIDE HAVING ANTIDIABETIC ACTIVITY AND USE THEREOF” (MEDI&GENE INC., priority 2021, published 2024)
